Data published in patent US20220399129A1, “SYSTEMS AND METHODS FOR TERRAFORMING” (Flagship Pioneering Innovations VI, LLC, priority 2021, published 2022).

System: primary human bronchial epithelial cells (HBECs)
Assay: ALI differentiation of HBECs with IL-13, immunofluorescence/histology readout
Assay type: cell-based
Conditions: IL-13 treatment during ALI differentiation, day 14, 1 ng/mL
Experimental: FIG. 14A illustrates an experimental scheme of culturing the undifferentiated basal cells known as primary human bronchial epithelial cells (HBECs) at the air-liquid interface in the presence or absence of IL-13 and the perturbagens. […] Pseudostratified airway epithelium was formed by day 14 of ALI differentiation in the presence of 1 ng/mL of […]. Total mucus (AB/PAS), goblet cells (Muc5ac^+), and ciliated cells (acetyl α-tubulin^+) were visualized via immunofluorescence or histology. For histology analysis, the differentiated HBECs on day 14 of ALI were stained with AB/PAS, Muc5ac, and acetyl α-tubulin. […] Immunofluorescence allows for a top down view of the most apical layer of cells, while histology presents a cross-section of the pseudostratified epithelium and is amenable for image quantification.
Using scRNA-seq data, Compound B1 was predicted to inhibit goblet cells and promote club cells within the top 1.2% of compounds of the intervention library. […] Goblet and club cells were assessed by Muc5ac and Scgblal primers, respectively. […] Goblet and ciliated cells were assessed by Muc5ac and Foxj1 primers, respectively. […]
Pseudostratified airway epithelium was formed by day 14 of ALI differentiation. […] In addition, qPCR of ciliated (Foxj1) and goblet (Muc5ac) marker expression was used as a sensitive and quantitative readout of epithelial cell type distribution. […]

Question: Which results are given for “IL-13: inflammatory signaling cytokine (R&D) used to induce goblet cell hyperplasia”?
Answer: ciliated cells (acetyl α-tubulin+): reduces ciliated cells; goblet cells (Muc5ac+), total mucus (AB/PAS): induces goblet cell hyperplasia
